Test results published in US9896441B2 (Lycera Corporation, priority 2014, dated 2018).

Legend:
[1] = molecular target: T1, RORγ-LBD (Homo sapiens, UniProt P51449); assay: RORγ-Ligand Binding Domain (LBD) TR-FRET Assay; format: biochemical; details: for TR-FRET Assay Max Response: maximum response;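 as to TR-FRET Assay Max Response: 665/615 nm signal ratio set to 100 without ursolic acid or test compound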
T1 construct: made in house; host or cells: SF9 cells (baculovirus); used as diluted lysate
T1 sequence (P51449 269-508 limits assumed): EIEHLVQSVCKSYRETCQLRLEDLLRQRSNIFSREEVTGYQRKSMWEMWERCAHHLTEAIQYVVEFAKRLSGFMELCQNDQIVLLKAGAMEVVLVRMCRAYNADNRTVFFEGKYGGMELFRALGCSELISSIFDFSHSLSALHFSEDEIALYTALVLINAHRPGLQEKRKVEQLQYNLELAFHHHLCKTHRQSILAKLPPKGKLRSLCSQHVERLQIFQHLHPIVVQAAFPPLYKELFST
Method in brief: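 TR-FRET read-out using a biotin-tagged SRC1 coactivator LXXLL peptide (200 nM final), with the antagonist ursolic acid present at 2 μM final. Receptor is His-tagged LBD expressed in SF9 cells, ~3 nM final in pH 7.0 Tris/KCl/EDTA/DTT/BSA buffer; compounds in 1% DMSO final.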

[2] = molecular target: T2, Gal4-RORγ-LBD (Homo sapiens, UniProt P51449); assay: Gal4-RORγ Luciferase Reporter Assay in HEK-293T Cells; format: cell-based; details: HEK-293 cells; for Gal4-RORγ Assay Max Response: maximum response
T2 construct: expressed in transfected cells
T2 sequence (P51449 269-508 limits assumed): T1 sequence (P51449 269-508 limits assumed)
Method in brief: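 Max Response was taken as the upper plateau of a 4-parameter logistic fit of luciferase signal, normalized to 100 for wells without ursolic acid or compound. Transiently Gal4-RORγ-LBD/Gal4-luc transfected HEK-293 cells carrying […] ursolic acid were incubated with test compounds (0.2% DMSO) overnight at 37 °C and read with One-Glo.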

[3] = luciferase reporter, with ursolic acid
[4] = luciferase reporter, in presence of ursolic acid
[5] = with 2 μM ursolic acid (RORγ antagonist), highest test concentration 10 μM
[6] = ursolic acid present, luciferase readout

SMILES | EC50 ([1]; RORγ-LBD TR-FRET) [nM] | EC50 [2, 3] [nM] | EC50 ([1]; RORγ-LBD TR-FRET assay) [nM] | TR-FRET Assay Max Response ([1]; RORγ-LBD TR-FRET assay) | EC50 [2, 4] [nM] | Gal4-RORγ Assay Max Response [2, 4] | EC50 [1, 5] [nM] | EC50 [2, 6] [nM]
CCOc1nn(CC)cc1S(=O)(=O)N1C[C@H](CCC(=O)OC)Oc2ccc(/C=C/c3ccccc3F)cc21 [Example 89AN, (S,E)-methyl 3-(4-((3-ethoxy-1-ethyl-1H-pyrazol-4-yl)sulfonyl)-6-(2-fluorostyryl)-3,4-dihydro-2H-benzo[b][1,4]oxazin-2-yl)propanoate] | 500 to 5000 | > 10000 |  |  |  |  |  | 
C/C(=C\c1ccc2c(c1)N(S(=O)(=O)c1cccc(C(F)(F)F)c1)C[C@H](CC(=O)O)O2)c1c(F)cccc1Cl [Example 107, (S,E)-2-(6-(2-(2-Chloro-6-fluorophenyl)prop-1-en-1-yl)-4-((3-(trifluoromethyl)phenyl)sulfonyl)-3,4-dihydro-2H-benzo[b][1,4]oxazin-2-yl)acetic acid] |  |  | < 500 | ** (a value in the range of greater than 90 to 150) | 500 to 5000 | ** (a value in the range of greater than 90 to 150) |  | 
CCn1cc(S(=O)(=O)N2C[C@H](CCC(=O)O)Oc3ccc(/C=C/c4c(Cl)cccc4C(F)(F)F)cc32)c(OCCO)n1 [Example 89EA, (S,E)-3-(6-(2-chloro-6-(trifluoromethyl)styryl)-4-((1-ethyl-3-(2-hydroxyethoxy)-1H-pyrazol-4-yl)sulfonyl)-3,4-dihydro-2H-benzo[b][1,4]oxazin-2-yl)propanoic acid] | < 500 | < 500 |  |  |  |  |  | 
CCC(=Cc1ccc2c(c1)N(S(=O)(=O)c1cc(C(F)(F)F)cnc1OCCO)C[C@H](CCC(=O)O)O2)CC [Example 95F, (S)-3-(6-(2-ethylbut-1-en-1-yl)-4-((2-(2-hydroxyethoxy)-5-(trifluoromethyl)pyridin-3-yl)sulfonyl)-3,4-dihydro-2H-benzo[b][1,4]oxazin-2-yl)propanoic acid] | < 500 | 500 to 5000 |  |  |  |  |  | 
COC(=O)CCC1CC(S(=O)(=O)c2ccc(F)c(OC)c2)c2cc(OCc3c(F)cccc3Cl)ccc2O1 (stereo not drawn) [Example 178, Methyl 3-(6-((2-chloro-6-fluorobenzyl)oxy)-4-((4-fluoro-3-methoxyphenyl)sulfonyl)chroman-2-yl)propanoate] |  |  | < 500 | ** (a value in the range of greater than 90 to 150) | 500 to 5000 | ** (a value in the range of greater than 90 to 150) |  | 
COc1cc(S(=O)(=O)N2c3cc(OCc4c(F)cccc4Cl)ccc3C=C(CO)[C@H]2C)ccc1F [Example 138, (R)-(7-((2-Chloro-6-fluorobenzyl)oxy)-1-((4-fluoro-3-methoxyphenyl)sulfonyl)-2-methyl-1,2-dihydroquinolin-3-yl)methanol] |  |  | < 500 | ** (a value in the range of greater than 90 to 150) | < 500 | *** (a value in the range of greater than 150 to 200) |  | 
C/C(=C\c1ccc2c(c1)N(S(=O)(=O)c1cccc(C(F)(F)F)c1)C[C@@H](O)C2)c1c(F)cccc1Cl [Example 161, (S,E)-7-(2-(2-Chloro-6-fluorophenyl)prop-1-en-1-yl)-1-((3-(trifluoromethyl)phenyl)sulfonyl)-1,2,3,4-tetrahydroquinolin-3-ol] |  |  | < 500 | ** (a value in the range of greater than 90 to 150) | < 500 | ** (a value in the range of greater than 90 to 150) |  | 
CCOc1ncc(C(F)(F)F)cc1S(=O)(=O)N1C[C@H](CCC(=O)O)Oc2ccc(/C=C/c3c(F)cccc3Cl)cc21 [Example 89DU, (S,E)-3-(6-(2-chloro-6-fluorostyryl)-4-((2-ethoxy-5-(trifluoromethyl)pyridin-3-yl)sulfonyl)-3,4-dihydro-2H-benzo[b][1,4]oxazin-2-yl)propanoic acid] | < 500 | 500 to 5000 |  |  |  |  |  | 
C/C(=C\c1ccc2c(c1)N(S(=O)(=O)c1cccc(C(F)(F)F)c1)C[C@H](CCC#N)O2)c1c(F)cccc1Cl |  |  |  |  |  |  | < 500 | < 500
C/C(=C\c1ccc2c(c1)N(S(=O)(=O)c1cccc(C(F)(F)F)c1)C[C@H](CNC(=O)N1CCOCC1)O2)c1c(F)cccc1Cl [Example 116N, (S,E)-N-((6-(2-(2-chloro-6-fluorophenyl)prop-1-en-1-yl)-4-((3-(trifluoromethyl)phenyl)sulfonyl)-3,4-dihydro-2H-benzo[b][1,4]-oxazin-2-yl)methyl)morpholine-4-carboxamide] |  |  |  |  |  |  | < 500 | < 500
C/C(=C\c1ccc2c(c1)N(S(=O)(=O)c1cccc(C(F)(F)F)c1)C[C@H](CCN1CCC(C(=O)O)CC1)O2)c1c(F)cccc1Cl [Example 122, (S,E)-1-(2-(6-(2-(2-Chloro-6-fluorophenyl)prop-1-en-1-yl)-4-((3-(trifluoromethyl)phenyl)sulfonyl)-3,4-dihydro-2H-benzo[b][1,4]oxazin-2-yl)ethyl)piperidine-4-carboxylic acid] |  |  | < 500 | *** (a value in the range of greater than 150 to 200) | < 500 | ** (a value in the range of greater than 90 to 150) |  | 
CCOc1nn(CC)cc1S(=O)(=O)N1C[C@H](CCC(=O)OC)Oc2ccc(/C=C/c3c(Cl)cccc3C(C)(F)F)cc21 [Example 89FF, methyl (S,E)-3-(6-(2-chloro-6-(1,1-difluoroethyl)styryl)-4-((3-ethoxy-1-ethyl-1H-pyrazol-4-yl)sulfonyl)-3,4-dihydro-2H-benzo[b][1,4]oxazin-2-yl)propanoate] | < 500 | 500 to 5000 |  |  |  |  |  | 
CCOc1nn(CC)cc1S(=O)(=O)N1C[C@H](CCC(=O)OC)Oc2ccc(/C=C/c3ncccc3F)cc21 [Example 89X, (S,E)-methyl 3-(4-((3-ethoxy-1-ethyl-1H-pyrazol-4-yl)-sulfonyl)-6-(2-(3-fluoropyridin-2-yl)vinyl)-3,4-dihydro-2H-benzo[b][1,4]oxazin-2-yl)propanoate] | 500 to 5000 | > 10000 |  |  |  |  |  | 
COC(=O)CC[C@H]1CN(S(=O)(=O)c2cccc(OC)c2)c2cc(/C=C(\C)c3c(F)cccc3Cl)ccc2O1 [Example 86N, (S,E)-methyl 3-(6-(2-(2-chloro-6-fluorophenyl)prop-1-en-1-yl)-4-((3-methoxyphenyl)sulfonyl)-3,4-dihydro-2H-benzo[b][1,4]oxazin-2-yl)propanoate] | < 500 | < 500 |  |  |  |  |  | 
C/C(=C\c1ccc2c(c1)N(S(=O)(=O)c1cccc(C(F)(F)F)c1)C[C@H](CC(C)(C)O)O2)c1c(F)cccc1Cl [Example 121A, (S,E)-1-(6-(2-(2-chloro-6-fluorophenyl)prop-1-en-1-yl)-4-((3-(trifluoromethyl)-phenyl)sulfonyl)-3,4-dihydro-2H-benzo[b][1,4]oxazin-2-yl)-2-methylpropan-2-ol] |  |  | < 500 | *** (a value in the range of greater than 150 to 200) | < 500 | ** (a value in the range of greater than 90 to 150) |  | 
COC(=O)CC[C@H]1CN(S(=O)(=O)c2cc(Cl)cnc2OCCO)c2cc(/C=C/c3c(F)cccc3Cl)ccc2O1 [Example 89AK, methyl (S,E)-3-(4-((5-chloro-2-(2-hydroxyethoxy)pyridin-3-yl)sulfonyl)-6-(2-chloro-6-fluorostyryl)-3,4-dihydro-2H-benzo[b][1,4]oxazin-2-yl)propanoate] | < 500 | 500 to 5000 |  |  |  |  |  | 
CCOc1ncc(C(F)(F)F)cc1S(=O)(=O)N1C[C@H](CCC(=O)OC)Oc2ccc(/C=C/c3c(Cl)cccc3C(F)F)cc21 [Example 89EK, methyl (S,E)-3-(6-(2-chloro-6-(difluoromethyl)styryl)-4-((2-ethoxy-5-(trifluoromethyl)-pyridin-3-yl)sulfonyl)-3,4-dihydro-2H-benzo[b][1,4]-oxazin-2-yl)propanoate] | < 500 | 500 to 5000 |  |  |  |  |  | 
COC(=O)CCC1CC(S(=O)(=O)c2cccc(C(F)(F)F)c2)c2cc(OCc3c(F)cccc3Cl)ccc2O1 (stereo not drawn) [Example 186B, methyl 3-(6-((2-chloro-6-fluorobenzyl)oxy)-4-((3-(trifluoromethyl)phenyl)sulfonyl)chroman-2-yl)propanoate] |  |  | < 500 | ** (a value in the range of greater than 90 to 150) | < 500 | ** (a value in the range of greater than 90 to 150) |  | 
C/C(=C\c1ccc2c(c1)N(S(=O)(=O)c1cccc(C(F)(F)F)c1)C[C@H](CCCN1CCCC1)O2)c1c(F)cccc1Cl [Example 117, (S,E)-6-(2-(2-Chloro-6-fluorophenyl)prop-1-en-1-yl)-2-(3-(pyrrolidin-1-yl)propyl)-4-((3-(trifluoromethyl)phenyl)sulfonyl)-3,4-dihydro-2H-benzo[b][1,4]oxazine] |  |  | < 500 | *** (a value in the range of greater than 150 to 200) | 500 to 5000 | ** (a value in the range of greater than 90 to 150) |  | 
